In series [1] the test system is carbachol-induced contraction in guinea-pigs trachea. In words: Carbachol-induced contraction in guinea-pig trachea strips, relaxation, isobolographic analysis. Format: cell-based. The note with it: Cavia porcellus, read-out: ED50, relaxation of carbachol-induced contraction. How it is done:
Male guinea-pigs (380-420 g) are used. The investigation conforms to the Guide for the Care and Use of Laboratory Animals published by the US National Institutes of Health (NIH Publication No. 85-23, revised 1996).
The trachea is removed, cleaned and cut into two zig-zag strips, according to Emmerson et al. (J. Pharm. Pharmacol., 1979; 31:798). A sub-maximal concentration of carbachol (3×10^−7 M) is then added to the organ bath and when stable contraction is reached, a cumulative concentration-response curve (from 1×10^−11 to 1×10^−7 M) to carmoterol or compound 1′ is generated (n=12 for each compound). Maximal relaxation is tested by adding a maximal dose of isoproterenol (3×10^−7 M) at the end of the curve. Data are expressed as percentages of the isoproterenol-induced maximal relaxation. Isobolographic analysis is used to characterize the pharmacological interaction between carmoterol and compound 1′.
To estimate the experimental ED50MIX, the dose-effect curve resulting from this second set of experiments (Table 1) is fitted with a mixed logistic model. All computations are carried out resorting to NLMIXED procedure (SAS/STAT® User's Guide, version 9, 2004. SAS Institute Inc., Cary, N.C.).

Series [2] has as its target T1, M2 muscarinic receptors (Homo sapiens, UniProt P08172).
T1 sequence (P08172 1-466): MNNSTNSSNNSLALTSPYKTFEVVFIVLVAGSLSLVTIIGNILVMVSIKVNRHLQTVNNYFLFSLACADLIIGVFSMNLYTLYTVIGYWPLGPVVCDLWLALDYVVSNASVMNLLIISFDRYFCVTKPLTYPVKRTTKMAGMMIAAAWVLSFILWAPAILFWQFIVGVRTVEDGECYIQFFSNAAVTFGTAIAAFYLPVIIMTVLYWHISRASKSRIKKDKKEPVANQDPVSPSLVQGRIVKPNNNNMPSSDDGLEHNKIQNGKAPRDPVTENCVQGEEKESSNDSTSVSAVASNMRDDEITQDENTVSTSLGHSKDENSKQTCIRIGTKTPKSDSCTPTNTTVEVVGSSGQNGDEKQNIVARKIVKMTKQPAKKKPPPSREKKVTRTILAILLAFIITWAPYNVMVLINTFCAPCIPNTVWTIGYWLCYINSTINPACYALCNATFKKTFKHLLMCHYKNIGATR
In words: Dissociation / duration of action on M2 receptors. The note with it: compared with tiotropium bromide. Format: binding.

The test system of series [3] is muscarinic receptors. Put plainly: Receptor potency and duration of action compared with tiotropium bromide.
Series [4] can be described thus: Bronchodilation activity: Ach-induced increase in Penh, barometric plethysmography after nebulisation. The note with it: male, guinea pig, lung, inhaled; nebulisation with submaximal bronchodilator activity, 2 hours after treatment; read-out: retained dose in the target organ (lung levels). The class given is in vivo, guinea pigs. As to the method: (§1) Airway reactivity is measured using barometric plethysmography (Buxco, USA). Male guinea pigs (500-600 g) are individually placed in plexiglass chambers. After an acclimatisation period, animals are exposed to nebulised saline for 1 minute to obtain airway baseline reading. This is followed by a 1 minute challenge with nebulised acetylcholine (Ach)-2.5 mg/mL.
(§2) After 60 minutes, 5 minutes nebulisation of vehicle or the compound 1′ in the range 2.5-250 μM are applied and Ach challenge is then repeated after 2, 5, 24, 48, and 72 hours (h). Recording of pressure fluctuations in the chambers are taken for 5 minutes after each nebulisation and analysed to calculate Enhanced Pause (Penh). Airway reactivity is expressed as percentage increase in Penh compared with Penh values from the nebulisation of vehicle.

The subject of series [5] is acetylcholine (Ach) challenge, airway reactivity. The series is described as above. Format: in vivo, guinea pigs. As to conditions: for bronchoprotective effect: twenty-four hours. As to the method: as §1, §2

The record followed here is patent US20090181935A1, “COMPOSITIONS COMPRISING AN […] AND A LONG-ACTING BETA-AGONIST” (Chiesi Farmaceutici S.p.A., priority 2008, published 2009).

SMILES strings stand for the structures. pEC50: −log10 of the molar value. Structures can show the parent of a compound that is named as a salt. Where two headings read alike, the source gives them in different places.

Regarding `COc1ccc(C[C@@H](C)NC[C@H](O)c2ccc(O)c3[nH]c(=O)ccc23)cc1` [carmoterol, reference compound], in series [1] (carbachol 3×10^−7 M, % of isoproterenol-induced maximal relaxation, n=12), the pEC50 was 9.27.

Take `O=C(C[N+]12CCC(CC1)C(OC(=O)N(Cc1cc(F)c(F)c(F)c1)c1cccc(F)c1)C2)c1cccs1` (stereo not shown) [chloride salt of active compound 1, 3-[[[(3-fluorophenyl)[(3,4,5-trifluorophenyl)methyl]amino]carbonyl]oxy]-1-[2-oxo-2-(2-thienyl)ethyl]-1-azoniabicyclo[2.2.2]octane]: the “duration of action on the M2 receptors” value in series [2] is “significantly short-acting”. In series [3], the duration of action entry was “equieffective to tiotropium bromide” and the receptor potency result is given as “equieffective to tiotropium bromide”.

Turning to `O=C(C[N+]12CCC(CC1)C(OC(=O)N(Cc1cc(F)c(F)c(F)c1)c1cccc(F)c1)C2)c1cccs1` (stereo not shown) [compound 1′, 3-[[[(3-fluorophenyl)[(3,4,5-trifluorophenyl)methyl]amino]carbonyl]oxy]-1-[2-oxo-2-(2-thienyl)ethyl]-1-azoniabicyclo [2.2.2]octane], the pEC50 in series [1] was 9.03. Besides, in series [4], the concentration at 2 h was roughly 50 ng/g. Besides, the bronchoprotective effect in series [5] (25 μM inhalation) was determined as 63.7±15.1%; in series [5] (50 μM inhalation) it was 87.1±8.7%. Also, the “inhibition of Ach-induced increase in Penh” value in series [5] (50 μM inhalation, 48 hours) was 49.2±23.2%. For the same molecule, in series [5] (50 μM nebulised, two hours after end of nebulisation), the “maximal effect, inhibition of Ach-induced increase in Penh” value stood at 99.6±0.4. Besides, the “inhibition of Ach-induced increase in Penh (effect)” value in series [5] (250 μM inhalation, 48 hours) came out at 83.0±16.1%. Also, the “residual activity, inhibition of Ach-induced increase in Penh” value in series [5] (250 μM inhalation, 72 hours) is recorded as 34.8±20.9%. Also, the duration of effect in series [5] (inhalation of lower concentrations (below 25 μM)) is no more than 5 h.
